From patent publication US9108944B2, “Androgen receptor modulators and uses thereof” (ARAGON PHARMACEUTICALS, INC., priority 2010, dated 2015) come the findings set out here.

Experiment [1] concerns the target T1, AR-VP16 (Homo sapiens, UniProt P10275).
T1 sequence (P10275 560-920 limits assumed): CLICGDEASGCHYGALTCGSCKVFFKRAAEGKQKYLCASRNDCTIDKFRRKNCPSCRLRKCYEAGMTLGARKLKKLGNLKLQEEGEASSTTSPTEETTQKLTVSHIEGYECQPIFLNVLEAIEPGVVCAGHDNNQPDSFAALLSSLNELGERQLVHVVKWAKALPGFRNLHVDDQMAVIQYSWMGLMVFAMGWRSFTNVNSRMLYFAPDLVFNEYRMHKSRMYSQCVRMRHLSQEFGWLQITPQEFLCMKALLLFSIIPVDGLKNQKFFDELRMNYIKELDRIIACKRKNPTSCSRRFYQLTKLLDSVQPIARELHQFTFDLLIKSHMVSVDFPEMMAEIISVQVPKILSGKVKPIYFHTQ
The experiment in a line: AR-VP16 DNA Binding Assay, agonist mode (HepG2 cells). As to conditions: Emax >20x DMSO control = agonist. In kind it is cell-based.

Experiment [2] deals with T1, AR-VP16. The experiment in a line: AR-VP16 DNA Binding Assay, antagonist mode (HepG2 cells, 0.1 nM R1881). In kind it is cell-based. Put shortly:
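HepG2 cells transiently transfected with AR-VP16 (Lipofectin), incubated overnight, then treated with compound in RPMI with charcoal-stripped serum. Antagonist mode adds R1881 at 0.1 nM final. Cells lysed after 48 h incubation for read-out.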

For orientation: IC50 means the point on the concentration scale where inhibition reaches its midpoint. A low value points to inhibition by little substance. With `Cc1ccccc1N1C(=S)N(c2cnc(C#N)c(C(F)(F)F)c2)C(=O)C12CCC2` [Compound 20, 5-(8-Oxo-6-thioxo-5-(o-tolyl)-5,7-diazaspiro[3.4]octan-7-yl)-3-(trifluoromethyl)picolinonitrile], the “ARVP16 DNA Binding Assay (Agonist mode): Agonist?” value (“ARVP16 DNA Binding Assay” for short) at AR-VP16 [1] was “No (Agonist defined as a compound whose Emax in the ARVP16 DNA Binding Assay (Agonist mode) is >20x DMSO control)”. The same compound gave a 50% inhibitory concentration (IC50) on AR-VP16 [2] of under 1000 nM.
For `Cc1ccc(N2C(=S)N(c3cnc(C#N)c(C(F)(F)F)c3)C(=O)C23CCC3)cc1` [Compound 22, 5-(8-Oxo-6-thioxo-5-(p-tolyl)-5,7-diazaspiro[3.4]octan-7-yl)-3-(trifluoromethyl)picolinonitrile] the same measures were “No (Agonist defined as a compound whose Emax in the ARVP16 DNA Binding Assay (Agonist mode) is >20x DMSO control)” and under 1000 nM.
As to `N#Cc1ncc(N2C(=O)C3(CCC3)N(c3ccccc3Oc3ccccc3)C2=S)cc1C(F)(F)F` [Compound 23, 5-(8-Oxo-5-(2-phenoxyphenyl)-6-thioxo-5,7-diazaspiro[3.4]octan-7-yl)-3-(trifluoromethyl)picolinonitrile], the “ARVP16 DNA Binding Assay” value on AR-VP16 [1] is on record as “No (Agonist defined as a compound whose Emax in the ARVP16 DNA Binding Assay (Agonist mode) is >20x DMSO control)”. The compound further yielded an IC50 at AR-VP16 [2] of over 1000 nM.
For `N#Cc1ncc(N2C(=O)C3(CCC3)N(c3cccc(Oc4ccccc4)c3)C2=S)cc1C(F)(F)F` [Compound 24, 5-(8-Oxo-5-(3-phenoxyphenyl)-6-thioxo-5,7-diazaspiro[3.4]octan-7-yl)-3-(trifluoromethyl)picolinonitrile] the same measures were “No (Agonist defined as a compound whose Emax in the ARVP16 DNA Binding Assay (Agonist mode) is >20x DMSO control)” and over 1000 nM.
Taken in the same sequence, the figures for `N#Cc1ncc(N2C(=O)C3(CCC3)N(c3ccc(Oc4ccccc4)cc3)C2=S)cc1C(F)(F)F` [Compound 25, 5-(8-Oxo-5-(4-phenoxyphenyl)-6-thioxo-5,7-diazaspiro[3.4]octan-7-yl)-3-(trifluoromethyl)picolinonitrile] were “No (Agonist defined as a compound whose Emax in the ARVP16 DNA Binding Assay (Agonist mode) is >20x DMSO control)” and under 1000 nM.
For `N#Cc1ncc(N2C(=O)C3(CCC3)N(c3ccccc3F)C2=S)cc1C(F)(F)F` [Compound 26, 5-(5-(2-Fluorophenyl)-8-oxo-6-thioxo-5,7-diazaspiro[3.4]octan-7-yl)-3-(trifluoromethyl)picolinonitrile], the “ARVP16 DNA Binding Assay” value at AR-VP16 [1] was “Yes (Agonist defined as a compound whose Emax in the ARVP16 DNA Binding Assay (Agonist mode) is >20x DMSO control)”. Also, the half-maximal inhibitory concentration (IC50) at AR-VP16 [2] was under 1000 nM.
Turning to `N#Cc1ncc(N2C(=O)C3(CCC3)N(c3cccc(F)c3)C2=S)cc1C(F)(F)F` [Compound 27, 5-(5-(3-Fluorophenyl)-8-oxo-6-thioxo-5,7-diazaspiro[3.4]octan-7-yl)-3-(trifluoromethyl)picolinonitrile], on AR-VP16 [1], the “ARVP16 DNA Binding Assay” value was “No (Agonist defined as a compound whose Emax in the ARVP16 DNA Binding Assay (Agonist mode) is >20x DMSO control)”. At AR-VP16 [2], this compound came in with an IC50 of under 1000 nM.
As for `N#Cc1ncc(N2C(=O)C3(CCC3)N(c3ccc(F)cc3)C2=S)cc1C(F)(F)F` [Compound 28, 5-(5-(4-Fluorophenyl)-8-oxo-6-thioxo-5,7-diazaspiro[3.4]octan-7-yl)-3-(trifluoromethyl)picolinonitrile], on AR-VP16 [1], the “ARVP16 DNA Binding Assay” value is “No (Agonist defined as a compound whose Emax in the ARVP16 DNA Binding Assay (Agonist mode) is >20x DMSO control)”. For the same compound, at AR-VP16 [2], the IC50 is under 1000 nM.
With `COc1cc(F)ccc1N1C(=S)N(c2cnc(C#N)c(C(F)(F)F)c2)C(=O)C12CCC2` [Compound 29, 5-(5-(4-Fluoro-2-methoxyphenyl)-8-oxo-6-thioxo-5,7-diazaspiro[3.4]octan-7-yl)-3-(trifluoromethyl)picolinonitrile], the “ARVP16 DNA Binding Assay” value on AR-VP16 [1] is reported as “No (Agonist defined as a compound whose Emax in the ARVP16 DNA Binding Assay (Agonist mode) is >20x DMSO control)”. In addition, the IC50 at AR-VP16 [2] was under 1000 nM.
For the compound `Cc1ccc(N2C(=S)N(c3cnc(C#N)c(C)c3)C(=O)C23CCC3)cc1` [Compound 31, 3-Methyl-5-(8-oxo-6-thioxo-5-(p-tolyl)-5,7-diazpiro[3.4]octan-7-yl)picolinonitrile], the “ARVP16 DNA Binding Assay” value at AR-VP16 [1] is given as “No (Agonist defined as a compound whose Emax in the ARVP16 DNA Binding Assay (Agonist mode) is >20x DMSO control)”. This compound also returned an IC50 at AR-VP16 [2] of under 1000 nM.
Regarding `COc1cc(N2C(=S)N(c3cnc(C#N)c(C(F)(F)F)c3)C(=O)C23CCC3)ccc1F` [Compound 32, 5-(5-(4-fluoro-3-methoxyphenyl)-8-oxo-6-thioxo-5,7-diazaspiro[3.4]octan-7-yl)-3-(trifluoromethyl)picolinonitrile], the “ARVP16 DNA Binding Assay” value at AR-VP16 [1] is recorded as “No (Agonist defined as a compound whose Emax in the ARVP16 DNA Binding Assay (Agonist mode) is >20x DMSO control)”. On AR-VP16 [2], this compound showed a 50% inhibitory concentration (IC50) of under 1000 nM.
As for `Cc1ccc(N2C(=S)N(c3cnc(C#N)c(C(F)(F)F)c3)C(=O)C2(C)C)cc1` [Compound 33, 5-(4,4-Dimethyl-5-oxo-2-thioxo-3-(p-tolyl)imidazolidin-1-yl)-3-(trifluoromethyl)picolinonitrile], the “ARVP16 DNA Binding Assay” value on AR-VP16 [1] is given as “No (Agonist defined as a compound whose Emax in the ARVP16 DNA Binding Assay (Agonist mode) is >20x DMSO control)”. On AR-VP16 [2], this compound returned an IC50 of under 1000 nM.
For `Cc1ccc(N2C(=S)N(c3ccc(C#N)c(C(F)(F)F)n3)C(=O)C23CCC3)cc1` [Compound 34, 6-(8-Oxo-6-thioxo-5-(p-tolyl)-5,7-diazaspiro[3.4]octan-7-yl)-2-(trifluoromethyl)nicotinonitrile] the same measures were “No (Agonist defined as a compound whose Emax in the ARVP16 DNA Binding Assay (Agonist mode) is >20x DMSO control)” and over 1000 nM.
On to `CNC(=O)c1ccc(N2C(=S)N(c3ccc(C#N)c(C(F)(F)F)n3)C(=O)C23CCC3)cc1F` [Compound 35, 4-(7-(5-Cyano-6-(trifluoromethyl)pyridin-2-yl)-8-oxo-6-thioxo-5,7-diazaspiro[3.4]octan-5-yl)-2-fluoro-N-methylbenzamide], for which the “ARVP16 DNA Binding Assay” value on AR-VP16 [1] is “No (Agonist defined as a compound whose Emax in the ARVP16 DNA Binding Assay (Agonist mode) is >20x DMSO control)”. On AR-VP16 [2], this compound registered a half-maximal inhibitory concentration (IC50) of over 1000 nM.
For the compound `N#Cc1ncc(N2C(=O)C3(CCC3)N(c3ccc(F)cc3O)C2=S)cc1C(F)(F)F` [Compound 38, 5-(5-(4-Fluoro-2-hydroxyphenyl)-8-oxo-6-thioxo-5,7-diazaspiro[3.4]octan-7-yl)-3-(trifluoromethyl)picolinonitrile], on AR-VP16 [1], the “ARVP16 DNA Binding Assay” value is “No (Agonist defined as a compound whose Emax in the ARVP16 DNA Binding Assay (Agonist mode) is >20x DMSO control)”. On AR-VP16 [2], this compound yielded a half-maximal inhibitory concentration (IC50) of over 1000 nM.
For `N#Cc1ncc(N2C(=O)C3(CCC3)N(c3ccc(Oc4cccnc4)cc3)C2=S)cc1C(F)(F)F` [Compound 39, 5-(8-Oxo-5-(4-(pyridin-3-yloxy)phenyl)-6-thioxo-5,7-diazaspiro[3.4]octan-7-yl)-3-(trifluoromethyl)picolinonitrile] the same measures were “Yes (Agonist defined as a compound whose Emax in the ARVP16 DNA Binding Assay (Agonist mode) is >20x DMSO control)” and under 1000 nM.
Take `N#Cc1ncc(N2C(=O)C3(CCC3)N(c3ccc(Oc4ccncc4)cc3)C2=S)cc1C(F)(F)F` [Compound 40, 5-(8-Oxo-5-(4-(pyridin-4-yloxy)phenyl)-6-thioxo-5,7-diazaspiro[3.4]octan-7-yl)-3-(trifluoromethyl)picolinonitrile]: the “ARVP16 DNA Binding Assay” value on AR-VP16 [1] is on record as “No (Agonist defined as a compound whose Emax in the ARVP16 DNA Binding Assay (Agonist mode) is >20x DMSO control)”. This compound also had a half-inhibitory concentration (IC50) at AR-VP16 [2] of under 1000 nM.
In the case of `N#Cc1ncc(N2C(=O)C3(CCC3)N(c3ccc(OC(F)(F)F)cc3)C2=S)cc1C(F)(F)F` [Compound 44, 5-(8-Oxo-6-thioxo-5-(4-(trifluoromethoxy)phenyl)-5,7-diazaspiro[3.4]octan-7-yl)-3-(trifluoromethyl)picolinonitrile], on AR-VP16 [1], the “ARVP16 DNA Binding Assay” value was “No (Agonist defined as a compound whose Emax in the ARVP16 DNA Binding Assay (Agonist mode) is >20x DMSO control)”. At AR-VP16 [2], this compound showed a half-maximal inhibitory concentration (IC50) of under 1000 nM.
For `N#Cc1ncc(N2C(=O)C3(CCC3)N(c3cccc(OC(F)(F)F)c3)C2=S)cc1C(F)(F)F` [Compound 45, 5-(8-Oxo-6-thioxo-5-(3-(trifluoromethoxy)phenyl)-5,7-diazaspiro[3.4]octan-7-yl)-3-(trifluoromethyl)picolinonitrile] the same measures were “No (Agonist defined as a compound whose Emax in the ARVP16 DNA Binding Assay (Agonist mode) is >20x DMSO control)” and under 1000 nM.
`N#Cc1ncc(N2C(=O)C3(CCC3)N(c3ccc(C(F)(F)F)cc3)C2=S)cc1C(F)(F)F` [Compound 46, 5-(8-Oxo-6-thioxo-5-(4-(trifluoromethyl)phenyl)-5,7-diazaspiro[3.4]octan-7-yl)-3-(trifluoromethyl)picolinonitrile]: the “ARVP16 DNA Binding Assay” value at AR-VP16 [1] was “No (Agonist defined as a compound whose Emax in the ARVP16 DNA Binding Assay (Agonist mode) is >20x DMSO control)”. The IC50 at AR-VP16 [2] is under 1000 nM.
